For one experiment, the system named is K562 CML cell line. Description: 13C6 glucose tracing in K562 CML cell line. Format: cell-based, human. The conditions noted are these: K562, several concentrations. On the procedure:
For conjugation of palmitate, a 20 mM stock was made in 100% EtOH. This was incubated on a shaking heater, 60° C. until the solution clarified. The palmitate was then added to 10% BSA (ultra-fatty acid free in EBSS, Roche, 03117057001) to give a palmitate:BSA ratio of 1:3 BSA. This solution was left for 15 min in water bath (37° C.), and then added to final concentration in complete medium. For cell line experiments, the medium was RPMI with 10% dialysed FBS and 1% penicillin/streptomycin. For tracing experiments 11 mM ^13C6 glucose was added to glucose-free RPMI.
Biological and technical replicates were processed through Autoplotter (56) and natural abundance was corrected for. Fraction of enrichment was calculated as m+2 and above. For CML samples treated with or without imatinib, multiple paired T-tests were conducted on Log 10 transformed values in Graphpad Prism. The correction for multiple comparisons was the two-stage step-up method of Benjamini, Krieger and Yekutieli with an FDR (Q) value of 10%. For volcano plots Log 10 FC vs Log 10 (q value) are plotted with q values>5% in red and >10% in blue. For normal vs CML comparisons, the process was the same with the exception that unpaired t-tests were used. For PC activity in normal vs CML, this is denoted by fraction m+3. For imatinib vs untreated we look at relative activity to PDH. IE., the m+3/m+2 ratio and conducted multiple t-tests with correction for multiple comparisons being the two-stage step-up method of Benjamini, Krieger and Yekutieli with an FDR (Q) value of 10%. To examine contribution to carbon pool we corrected contribution of each isotopologue by the number of carbons it contributes to a given metabolite, i.e., for glutamine contribution from m+5 is greater than m+3. Note that for cell line experiments standard deviation is shown.

The test system of experiment [1] is CML CD34+ cells. Put plainly: Patient-derived xenograft of CML CD34+ cells in NRG-W41 mice, bone marrow flow cytometry. The format is in vivo, human. On the procedure: Treatment was given for 4 weeks. For treatment with asciminib (ABL001) plus MSDC-0160, twelve weeks following transplant, drug treatment was started with both asciminib (Fisher Scientific Cat #1642956) dosed at 10 mg/kg/day (5 mg/kg BID); oral gavage and MSDC-0160 (Apex Biotechnology: Cat #B3702) dosed at 30 mg/kg; oral gavage once daily. Treatment was given for 4 weeks. At the respective endpoints, bone marrow cells were collected. This was done by placing inverted cut leg bones into 0.5 mL Eppendorf tubes with holes at bottom. These in turn were placed within 1.5 mL Eppendorf tubes containing PBS, centrifuged (12,000 RCF, 20 seconds). Cells were stained (300 μl/test) with anti-mouse (APC-Cy7 BD Biosciences: Cat #557659, RRID: AB_396774, 1 μl), anti-human CD45 (FITC; BD Biosciences: Cat #555482, RRID: AB_395874, 10 μl), anti-human CD34 (APC; BD Biosciences: Cat #555824, RRID: AB_398614, 2 μl) and anti-human CD38 (PerCP; BioLegend: Cat #303520, RRID: AB_893313, 2 μl) antibodies for flow cytometry analysis as described above.
For orientation: Xenograft models place foreign cells or tissue in a host animal.

Experiment [2] relates to CML CD34+ cells. Put plainly: Mitochondrial respiratory capacity (FCCP-induced oxygen consumption rate). The format is cell-based, human. The conditions noted are these: imatinib-treated samples.
Experiment [3] has as its system CML CD34+ cells. Put plainly: Extracellular flux of spent medium by YSI bioanalyser. The format is cell-based, human.
Method: A YSI 2900 biochemistry analyser was used as per the manufacturer's instructions to quantify glucose, lactate, glutamine, and glutamate in the media. The concentration of each metabolite was normalised to cell number and the rate of uptake or secretion per hour was calculated relative to cell free medium. The exchange rate per 48 hours [secretion (+) or consumption (−)] for a specific metabolite (x) was obtained according to the following equation:
Another experiment has as its system KCL22 cell line. Description: Imatinib sensitivity of PC knockout KCL22 cell line. Format: cell-based, human. The conditions noted are these: data not shown.
[4] abbreviates: combination of imatinib and MSDC-0160, 4 weeks.

On to `CCc1ccc(C(=O)COc2ccc(CC3SC(=O)NC3=O)cc2)nc1` (stereo not drawn) [MSDC-0160], for which the “labelled fractions in alpha-ketoglutarate (AKG) and AKG-derived glutamate” value in the experiment with K562 CML cell line is on record as “reducing levels of all labelled fractions in these metabolites in a concentration-dependent manner”. Also, the “glucose contribution to fraction of labelling” value in the experiment with K562 CML cell line (data not shown) is given as “concentration-dependent reduction”. Moreover, the “percentage of human CML LSCs, MSDC-0160 on its own” value with CML CD34+ cells [1] (MSDC-0160 30 mg/kg once daily, 4 weeks, 12 weeks engraftment) was “reduction in the percentage of human CML LSCs”. Also, the “percentage of human CML LSCs, combination with ABL-001” value with CML CD34+ cells [1] (MSDC-0160 30 mg/kg plus ABL-001 10 mg/kg/day, 4 weeks) is reported as “reduction in the percentage of human CML LSCs”. Besides, in the experiment on CML CD34+ cells [1] (combination of ABL-001 and MSDC-0160 30 mg/kg, 4 weeks), the “total numbers of CML CD45+CD34+CD38- cells (LSC)” value was “did not reduce the total numbers”. In addition, the “reduction in percentage of human CD45+ leukocytes and total number of bone marrow CD45+ cells” value in the experiment on CML CD34+ cells [1] (combination of imatinib 50 mg/kg BID and MSDC-0160 30 mg/kg/day, 4 weeks) is on record as “did not reach statistical significance”. Moreover, in the experiment on CML CD34+ cells [1] (setting [4]), the “percentage and absolute number of human CML LSCs (CD34+CD38-)” value is “marked reduction in both the percentage and absolute number”; the “relative and total reduction of CD34+ cells versus vehicle or imatinib arms” value is “did not reach statistical significance”.

Take `Cc1ccc(NC(=O)c2ccc(CN3CCN(C)CC3)cc2)cc1Nc1nccc(-c2cccnc2)n1` [imatinib]: the “mitochondrial respiratory capacity (FCCP-induced oxygen consumption rate)” value in the experiment with CML CD34+ cells [2] was “reduced”. Further, the glucose consumption result with CML CD34+ cells [3] (imatinib-treated vs control primary CML CD34+ cells) is recorded as “consumed less glucose than control cells, when corrected for a decrease in proliferation this difference disappeared”. For the same compound, the glutamine consumption entry with CML CD34+ cells [3] (imatinib-treated vs untreated primary CML CD34+ cells) was “decreased”. In the experiment on KCL22 cell line, the “sensitivity to the drug after knockout of PC in KCL22” value is reported as “failed to increase sensitivity”.

Source of the values: patent US20260014129A1, “MITOCHONDRIAL PYRUVATE METABOLISM INHIBITORS FOR TREATING CHRONIC MYELOID LEUKEMIA” (The University Court of the University of Glasgow, priority 2022, published 2026).
